Source: US10206399B2, “Herbicidal composition comprising uracil compound as active ingredient” (Dongbu Farm Hannong Co., Ltd., priority 2012, dated 2019)
Like-named read-outs stand apart in the source and are kept apart here.

What was measured:
Echinochloa crus [1] = test: Paddy field farming herbicidal composition test, plant mortality; assay type: in vivo; conditions: Echinochloa; 5 g/ha; read-out: Echinochloa crus mortality (measured value)
Description: (§1) X is % damage by uracil compound (a) of formula 1 at the rate of application of p kg/ha; Y is % damage by conventional herbicidal compound (b) at the rate of application of q kg/ha; and E is the expected damage caused by compounds (a) and (b) at a rate of application of p and q kg/ha.
(§2) The expected activity for a given combination of two herbicides can be calculated using equation 1 above.

Echinochloa crus [2] = conditions: for Echinochloa crus mortality, measured value: 20 days after treatment; for plant mortality, measured value: Echinochloa crus
Description: as §1, §2

Capsella bursapastoris = test: Dry field farming herbicidal composition test, plant mortality; assay type: in vivo; conditions: in % (unit assumed)
Description: as §1, §2

Xanthium spinosum = test: whole plant or invertebrate
Description: as §1, §2

rice plant = test: Paddy field farming herbicidal composition test, plant mortality (crop)
Description: as §1, §2

Abutilon theophrasti [3] = test: whole plant or invertebrate
Description: as §1, §2

Lamium amplexicaule = test: Dry field farming herbicidal composition test, plant mortality; assay type: in vivo; conditions: in % (unit assumed)
Description: as §1, §2

Digitaria sanguinalis [4] = conditions: for Digitaria sanguinalis mortality, measured value: 20 days after treatment
Description: as §1, §2

wild amaranth = test: Nonselective composition of 1 uracil compound and 2 herbicidally active compounds, plant mortality; assay type: in vivo; conditions: Amaranthus caudatus, 480 h; 8 g ai/ha; read-out: Wild amaranth mortality (measured value)
Description: as §1, §2

Echinochloa crus [5] = test: Dry field farming herbicidal composition test, plant mortality; assay type: in vivo
Description: as §1, §2

wheat = test: Dry field farming herbicidal composition test, plant mortality (crop)
Description: as §1, §2

Porippa islandica = test: Dry field farming herbicidal composition test, plant mortality; assay type: in vivo
Description: as §1, §2

Aeschynomene indica [6] = test: whole plant or invertebrate
Description: as §1, §2

Ludwigia prostrate = test: Paddy field farming herbicidal composition test, plant mortality; assay type: in vivo
Description: as §1, §2

Abutilon theophrasti [7] = test: Dry field farming herbicidal composition test, plant mortality; assay type: in vivo; conditions: Abutilon theophrasti, read-out: Abutilon theophrasti mortality, measured value
Description: as §1, §2

ryegrass = test: Nonselective composition of 1 uracil compound and 2 herbicidally active compounds, plant mortality; assay type: in vivo; conditions: 480 h; 8 g ai/ha; read-out: ryegrass mortality (measured value)
Description: as §1, §2

Aeschynomene indica [8] = test: Dry field farming herbicidal composition test, plant mortality; assay type: in vivo
Description: as §1, §2

Alopecurus aequalis = test: as above; assay type: in vivo; conditions: in % (unit assumed)
Description: as §1, §2

Monochoria vaginalis = test: Paddy field farming herbicidal composition test, plant mortality; assay type: in vivo; conditions: Pontederia vaginalis, read-out: Monochoria vaginalis mortality (measured value)
Description: as §1, §2

Digitaria sanguinalis [9] = test: Dry field farming herbicidal composition test, plant mortality; assay type: in vivo
Description: as §1, §2

[10] = 480 h, read-out: Xanthium spinosum mortality, measured value
[11] = read-out: plant mortality, measured value, 4 g/ha
[12] = read-out: plant mortality, measured value, 8 g/ha
[13] = read-out: plant mortality, measured value, 16 g/ha
[14] = 480 h, read-out: Abutilon theophrasti mortality, measured value
[15] = 480 h, read-out: Aeschynomene indica mortality, measured value

COC(=O)CCNC(=O)C(C)Sc1cc(-n2c(=O)cc(C(F)(F)F)n(C)c2=O)c(F)cc1Cl (stereo not drawn) [Compound 36, 3-[{2-[2-chloro-5-(3,6-dihydro-3-methyl-2,6-dioxo-4-trifluoromethyl-1(2H)-pyrimidinyl)-4-fluorophenylthio]-1-oxopropyl}amino]propionic acid methyl ester]
pest or weed control at 5 g/ha (Echinochloa crus [1]): 0%
Corn mortality, measured value (corn; 1 g/ha): 0
Corn mortality, measured value (corn; 2 g/ha): 0
Corn mortality, measured value (corn; 4 g/ha): 1
Data (measured value) Echinochloa crus (Echinochloa crus [2]; 4 g/ha): 0
Echinochloa crus mortality, measured value (Echinochloa crus [2]; 4 g/ha): 0%
plant mortality, measured value (Echinochloa crus [2]; 4 g/ha): 0
Data (measured value) Echinochloa crus (Echinochloa crus [2]; 8 g/ha): 5
Echinochloa crus mortality, measured value (Echinochloa crus [2]; 8 g/ha): 5%
plant mortality, measured value (Echinochloa crus [2]; 8 g/ha): 5
Echinochloa crus mortality, measured value (Echinochloa crus [2]; 16 g/ha): 10%
Data (measured value) Echinochloa crus (Echinochloa crus [2]; 20 g/ha): 17
Echinochloa crus mortality, measured value (Echinochloa crus [2]; 20 g/ha): 17%
Data (measured value) Echinochloa crus (Echinochloa crus [2]; 40 g/ha): 37
Echinochloa crus mortality, measured value (Echinochloa crus [2]; 40 g/ha): 37%
Data (measured value) Echinochloa crus (Echinochloa crus [2]; 80 g/ha): 61
Echinochloa crus mortality, measured value (Echinochloa crus [2]; 80 g/ha): 61%
Capsella bursapastoris mortality, measured value (Capsella bursapastoris; 1 g/ha): 5
Capsella bursapastoris mortality, measured value (Capsella bursapastoris; 2 g/ha): 25
Capsella bursapastoris mortality, measured value (Capsella bursapastoris; 4 g/ha): 45
mortality at 4 g/ha (Xanthium spinosum; [10]): 21%
mortality at 8 g/ha (Xanthium spinosum; [10]): 42%
mortality at 16 g/ha (Xanthium spinosum; [10]): 56%
mortality at 20 g/ha (Xanthium spinosum; [10]): 51%
mortality at 40 g/ha (Xanthium spinosum; [10]): 90%
mortality at 80 g/ha (Xanthium spinosum; [10]): 100%
pest or weed control at 4 g/ha (Xanthium spinosum; read-out: Data (measured value) Xanthium spinosum, 4 g/ha): 24%
pest or weed control at 8 g/ha (Xanthium spinosum; read-out: Data (measured value) Xanthium spinosum, 8 g/ha): 59%
pest or weed control at 16 g/ha (Xanthium spinosum; read-out: Data (measured value) Xanthium spinosum, 16 g/ha): 79%
pest or weed control at 20 g/ha (Xanthium spinosum; read-out: Data (measured value) Xanthium spinosum, 20 g/ha): 51%
pest or weed control at 40 g/ha (Xanthium spinosum; read-out: Data (measured value) Xanthium spinosum, 40 g/ha): 90%
pest or weed control at 80 g/ha (Xanthium spinosum; read-out: Data (measured value) Xanthium spinosum, 80 g/ha): 100%
pest or weed control at 4 g/ha (Xanthium spinosum; [11]): 25%
pest or weed control at 8 g/ha (Xanthium spinosum; [12]): 50%
pest or weed control at 16 g/ha (Xanthium spinosum; [13]): 70%
Rice plant mortality (measured value) (rice plant; 5 g/ha): 0
Rice plant mortality (measured value) (rice plant; 10 g/ha): 1
mortality at 4 g/ha (Abutilon theophrasti [3]; [14]): 11%
mortality at 8 g/ha (Abutilon theophrasti [3]; [14]): 38%
mortality at 16 g/ha (Abutilon theophrasti [3]; [14]): 51%
mortality at 20 g/ha (Abutilon theophrasti [3]; [14]): 58%
mortality at 40 g/ha (Abutilon theophrasti [3]; [14]): 100%
mortality at 80 g/ha (Abutilon theophrasti [3]; [14]): 100%
pest or weed control at 4 g/ha (Abutilon theophrasti [3]; read-out: Data (measured value) Abutilon theophrasti, 4 g/ha): 15%
pest or weed control at 8 g/ha (Abutilon theophrasti [3]; read-out: Data (measured value) Abutilon theophrasti, 8 g/ha): 35%
pest or weed control at 16 g/ha (Abutilon theophrasti [3]; read-out: Data (measured value) Abutilon theophrasti, 16 g/ha): 47%
pest or weed control at 20 g/ha (Abutilon theophrasti [3]; read-out: Data (measured value) Abutilon theophrasti, 20 g/ha): 58%
pest or weed control at 40 g/ha (Abutilon theophrasti [3]; read-out: Data (measured value) Abutilon theophrasti, 40 g/ha): 100%
pest or weed control at 80 g/ha (Abutilon theophrasti [3]; read-out: Data (measured value) Abutilon theophrasti, 80 g/ha): 100%
Lamium amplexicaule mortality, measured value (Lamium amplexicaule; 1 g/ha): 10
Lamium amplexicaule mortality, measured value (Lamium amplexicaule; 2 g/ha): 30
Lamium amplexicaule mortality, measured value (Lamium amplexicaule; 4 g/ha): 50
Data (measured value) Digitaria sanguinalis (Digitaria sanguinalis [4]; 4 g/ha): 0
Digitaria sanguinalis mortality, measured value (Digitaria sanguinalis [4]; 4 g/ha): 0%
plant mortality, measured value (Digitaria sanguinalis [4]; 4 g/ha, Digitaria sanguinalis): 0
Digitaria sanguinalis mortality, measured value (Digitaria sanguinalis [4]; 8 g/ha): 5%
Data (measured value) Digitaria sanguinalis (Digitaria sanguinalis [4]; 16 g/ha): 15
Digitaria sanguinalis mortality, measured value (Digitaria sanguinalis [4]; 16 g/ha): 16%
Data (measured value) Digitaria sanguinalis (Digitaria sanguinalis [4]; 20 g/ha): 19
Digitaria sanguinalis mortality, measured value (Digitaria sanguinalis [4]; 20 g/ha): 19%
Data (measured value) Digitaria sanguinalis (Digitaria sanguinalis [4]; 40 g/ha): 43
Digitaria sanguinalis mortality, measured value (Digitaria sanguinalis [4]; 40 g/ha): 43%
Data (measured value) Digitaria sanguinalis (Digitaria sanguinalis [4]; 80 g/ha): 71
Digitaria sanguinalis mortality, measured value (Digitaria sanguinalis [4]; 80 g/ha): 71%
pest or weed control at 8 g/ha (wild amaranth): 40%
Echinochloa crus mortality, measured value (Echinochloa crus [5]; 4 g/ha): 5%
pest or weed control at 1 g/ha (Echinochloa crus [5]; Echinochloa, 1 g/ha, read-out: Echinochloa crus mortality, measured value): 0%
pest or weed control at 2 g/ha (Echinochloa crus [5]; Echinochloa, 2 g/ha, read-out: Echinochloa crus mortality, measured value): 0%
pest or weed control at 4 g/ha (Echinochloa crus [5]; Echinochloa, 4 g/ha, read-out: Echinochloa crus mortality, measured value): 5%
Wheat mortality, measured value (wheat; 1 g/ha): 0
Wheat mortality, measured value (wheat; 2 g/ha): 0
Wheat mortality, measured value (wheat; 4 g/ha): 1
Porippa islandica mortality, measured value (Porippa islandica; 1 g/ha): 10
Porippa islandica mortality, measured value (Porippa islandica; 2 g/ha): 30
Porippa islandica mortality, measured value (Porippa islandica; 4 g/ha): 55
mortality at 4 g/ha (Aeschynomene indica [6]; [15]): 26%
mortality at 8 g/ha (Aeschynomene indica [6]; [15]): 52%
mortality at 16 g/ha (Aeschynomene indica [6]; [15]): 69%
mortality at 20 g/ha (Aeschynomene indica [6]; [15]): 56%
mortality at 40 g/ha (Aeschynomene indica [6]; [15]): 100%
mortality at 80 g/ha (Aeschynomene indica [6]; [15]): 100%
pest or weed control at 4 g/ha (Aeschynomene indica [6]; read-out: Data (measured value) Aeschynomene indica, 4 g/ha): 19%
pest or weed control at 8 g/ha (Aeschynomene indica [6]; read-out: Data (measured value) Aeschynomene indica, 8 g/ha): 46%
pest or weed control at 16 g/ha (Aeschynomene indica [6]; read-out: Data (measured value) Aeschynomene indica, 16 g/ha): 61%
pest or weed control at 20 g/ha (Aeschynomene indica [6]; read-out: Data (measured value) Aeschynomene indica, 20 g/ha): 56%
pest or weed control at 40 g/ha (Aeschynomene indica [6]; read-out: Data (measured value) Aeschynomene indica, 40 g/ha): 100%
pest or weed control at 80 g/ha (Aeschynomene indica [6]; read-out: Data (measured value) Aeschynomene indica, 80 g/ha): 100%
pest or weed control at 4 g/ha (Aeschynomene indica [6]; [11]): 20%
pest or weed control at 8 g/ha (Aeschynomene indica [6]; [12]): 45%
pest or weed control at 16 g/ha (Aeschynomene indica [6]; [13]): 65%
Ludwigia prostrate mortality (measured value) (Ludwigia prostrate; 5 g/ha): 35%
Ludwigia prostrate mortality (measured value) (Ludwigia prostrate; 10 g/ha): 55%
pest or weed control at 1 g/ha (Abutilon theophrasti [7]; 1 g/ha): 15%
pest or weed control at 2 g/ha (Abutilon theophrasti [7]; 2 g/ha): 35%
pest or weed control at 4 g/ha (Abutilon theophrasti [7]; 4 g/ha): 50%
pest or weed control at 8 g/ha (ryegrass): 30%
Aeschynomene indica mortality, measured value (Aeschynomene indica [8]; 1 g/ha): 10%
Aeschynomene indica mortality, measured value (Aeschynomene indica [8]; 4 g/ha): 45%
pest or weed control at 1 g/ha (Aeschynomene indica [8]; Aeschynomene indica, 1 g/ha, read-out: Aeschynomene indica mortality, measured value): 10%
pest or weed control at 2 g/ha (Aeschynomene indica [8]; Aeschynomene indica, 2 g/ha, read-out: Aeschynomene indica mortality, measured value): 25%
pest or weed control at 4 g/ha (Aeschynomene indica [8]; Aeschynomene indica, 4 g/ha, read-out: Aeschynomene indica mortality, measured value): 45%
Alopecurus aequalis mortality, measured value (Alopecurus aequalis; 1 g/ha): 0
Alopecurus aequalis mortality, measured value (Alopecurus aequalis; 2 g/ha): 0
Alopecurus aequalis mortality, measured value (Alopecurus aequalis; 4 g/ha): 10
pest or weed control at […] (Monochoria vaginalis; 2.5 g/ha): 5%
pest or weed control at 5 g/ha (Monochoria vaginalis; 5 g/ha): 30%
pest or weed control at 10 g/ha (Monochoria vaginalis; 10 g/ha): 50%
Digitaria sanguinalis mortality, measured value (Digitaria sanguinalis [9]; 4 g/ha): 10%
pest or weed control at 1 g/ha (Digitaria sanguinalis [9]; Digitaria sanguinalis, 1 g/ha, read-out: Digitaria sanguinalis mortality, measured value): 0%
pest or weed control at 2 g/ha (Digitaria sanguinalis [9]; Digitaria sanguinalis, 2 g/ha, read-out: Digitaria sanguinalis mortality, measured value): 0%
pest or weed control at 4 g/ha (Digitaria sanguinalis [9]; Digitaria sanguinalis, 4 g/ha, read-out: Digitaria sanguinalis mortality, measured value): 10%
